ChEMBL document CHEMBL1201862, “PubChem BioAssay data set” (2004)
One block for each compound: values may come before it. Active and inactive are the calls of the source.

How the values were obtained:
[1] = target: Cyclin-dependent kinase 5 (Homo sapiens, UniProt Q00535); assay type: functional;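 also: CDK5 measured as one member of a kinase profiling panel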
[2] = target: Mitogen-activated protein kinase 8 (Homo sapiens, UniProt P45983); assay type: functional;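 also: value comes from one member of a kinome-wide kinase profiling panel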
[3] = target: Platelet-derived growth factor receptor alpha (Homo sapiens, UniProt P16234); experiment: Navigating the Kinome. Panel member name: PDGFRA; assay type: functional
Chain of Platelet-derived growth factor receptor alpha (P16234 whole entry): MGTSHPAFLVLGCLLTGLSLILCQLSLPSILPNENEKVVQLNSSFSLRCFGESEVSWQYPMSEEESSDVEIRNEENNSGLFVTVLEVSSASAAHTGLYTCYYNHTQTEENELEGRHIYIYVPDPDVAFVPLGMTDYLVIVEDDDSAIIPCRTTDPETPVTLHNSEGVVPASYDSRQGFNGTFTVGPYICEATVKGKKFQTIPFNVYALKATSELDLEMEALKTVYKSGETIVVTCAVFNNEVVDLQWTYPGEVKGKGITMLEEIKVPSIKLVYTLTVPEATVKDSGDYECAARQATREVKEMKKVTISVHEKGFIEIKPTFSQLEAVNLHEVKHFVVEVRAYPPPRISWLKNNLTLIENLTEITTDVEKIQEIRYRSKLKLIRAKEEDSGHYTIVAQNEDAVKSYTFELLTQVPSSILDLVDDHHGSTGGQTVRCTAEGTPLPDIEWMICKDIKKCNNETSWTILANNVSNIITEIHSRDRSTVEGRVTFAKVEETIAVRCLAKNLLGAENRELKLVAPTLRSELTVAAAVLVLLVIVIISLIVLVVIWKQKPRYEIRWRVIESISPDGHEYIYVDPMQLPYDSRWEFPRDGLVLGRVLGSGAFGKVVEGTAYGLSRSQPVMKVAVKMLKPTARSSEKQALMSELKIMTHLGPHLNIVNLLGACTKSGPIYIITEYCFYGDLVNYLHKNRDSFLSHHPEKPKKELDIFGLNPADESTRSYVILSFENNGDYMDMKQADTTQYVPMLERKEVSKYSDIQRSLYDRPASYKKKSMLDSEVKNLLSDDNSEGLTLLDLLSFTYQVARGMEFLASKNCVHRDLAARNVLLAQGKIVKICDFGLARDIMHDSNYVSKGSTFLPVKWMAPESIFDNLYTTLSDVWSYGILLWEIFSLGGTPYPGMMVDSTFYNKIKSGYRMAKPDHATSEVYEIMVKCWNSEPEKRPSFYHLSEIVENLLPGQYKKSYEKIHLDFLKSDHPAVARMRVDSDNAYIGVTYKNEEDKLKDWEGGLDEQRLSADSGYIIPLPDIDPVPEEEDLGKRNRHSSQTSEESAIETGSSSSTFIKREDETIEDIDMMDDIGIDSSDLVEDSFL

[4] = target: Dual specificity protein kinase CLK4 (Homo sapiens, UniProt Q9HAZ1); assay type: functional
Chain of Dual specificity protein kinase CLK4 (Q9HAZ1 whole entry): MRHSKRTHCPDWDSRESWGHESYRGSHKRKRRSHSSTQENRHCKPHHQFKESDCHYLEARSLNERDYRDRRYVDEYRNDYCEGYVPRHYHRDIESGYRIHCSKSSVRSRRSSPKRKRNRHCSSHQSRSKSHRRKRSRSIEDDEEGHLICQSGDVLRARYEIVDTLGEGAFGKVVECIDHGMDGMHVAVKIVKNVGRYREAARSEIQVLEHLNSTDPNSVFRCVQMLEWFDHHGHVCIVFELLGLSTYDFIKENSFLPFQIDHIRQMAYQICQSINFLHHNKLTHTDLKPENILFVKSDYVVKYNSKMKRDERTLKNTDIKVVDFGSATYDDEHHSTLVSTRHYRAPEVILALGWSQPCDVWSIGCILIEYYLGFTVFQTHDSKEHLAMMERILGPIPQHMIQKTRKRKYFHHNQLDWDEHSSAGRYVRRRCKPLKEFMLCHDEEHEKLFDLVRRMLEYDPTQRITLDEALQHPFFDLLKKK

[5] = target: Tyrosine-protein kinase receptor TYRO3 (Homo sapiens, UniProt Q06418); assay type: functional;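 also: TYRO3 value obtained as one member of a kinome-wide profiling panel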
[6] = target: Proto-oncogene tyrosine-protein kinase receptor Ret (Homo sapiens, UniProt P07949); assay type: functional;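 also: measured within a kinome-wide profiling panel, RET as the panel member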
[7] = target: Dual specificity tyrosine-phosphorylation-regulated kinase 1B (Homo sapiens, UniProt Q9Y463); experiment: Navigating the Kinome. Panel member name: DYRK1B; assay type: functional
[8] = target: T1, Glycogen synthase kinase-3 beta (Homo sapiens, UniProt P49841); assay type: functional;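 as to Ki: value comes from a broad kinome profiling panel, with GSK3B as the panel member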
T1 sequence (P49841 whole entry): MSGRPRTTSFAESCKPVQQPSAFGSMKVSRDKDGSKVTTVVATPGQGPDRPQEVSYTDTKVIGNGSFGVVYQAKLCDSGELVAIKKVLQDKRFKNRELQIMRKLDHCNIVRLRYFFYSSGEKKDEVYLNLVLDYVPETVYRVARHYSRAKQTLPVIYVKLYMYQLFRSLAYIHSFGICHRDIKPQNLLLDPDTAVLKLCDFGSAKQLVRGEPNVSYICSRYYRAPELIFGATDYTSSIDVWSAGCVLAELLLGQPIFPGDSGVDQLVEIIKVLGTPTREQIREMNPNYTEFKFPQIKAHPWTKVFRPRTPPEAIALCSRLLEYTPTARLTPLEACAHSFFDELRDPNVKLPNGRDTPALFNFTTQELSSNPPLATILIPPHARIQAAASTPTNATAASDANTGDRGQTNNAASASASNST

[9] = target: Cell division cycle 7-related protein kinase (Homo sapiens, UniProt O00311); assay type: functional;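 also: value obtained from a kinome-wide kinase panel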
Chain of Cell division cycle 7-related protein kinase (O00311 whole entry): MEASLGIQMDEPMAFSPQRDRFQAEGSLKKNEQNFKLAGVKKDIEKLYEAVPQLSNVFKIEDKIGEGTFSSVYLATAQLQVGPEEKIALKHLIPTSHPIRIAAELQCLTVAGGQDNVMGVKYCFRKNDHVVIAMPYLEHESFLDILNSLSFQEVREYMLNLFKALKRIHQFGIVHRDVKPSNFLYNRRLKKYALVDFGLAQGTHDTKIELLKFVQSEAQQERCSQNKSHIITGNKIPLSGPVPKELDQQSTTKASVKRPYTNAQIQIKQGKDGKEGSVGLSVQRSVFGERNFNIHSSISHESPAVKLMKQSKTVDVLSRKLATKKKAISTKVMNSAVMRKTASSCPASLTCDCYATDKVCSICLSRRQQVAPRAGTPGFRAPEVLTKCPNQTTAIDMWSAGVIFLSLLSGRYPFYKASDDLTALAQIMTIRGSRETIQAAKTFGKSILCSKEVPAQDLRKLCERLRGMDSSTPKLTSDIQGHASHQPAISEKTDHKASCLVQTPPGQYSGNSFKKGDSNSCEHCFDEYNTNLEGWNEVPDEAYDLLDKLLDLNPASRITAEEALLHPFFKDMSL

[10] = target: Interleukin-1 receptor-associated kinase 4 (Homo sapiens, UniProt Q9NWZ3); assay type: functional
Chain of Interleukin-1 receptor-associated kinase 4 (Q9NWZ3 whole entry): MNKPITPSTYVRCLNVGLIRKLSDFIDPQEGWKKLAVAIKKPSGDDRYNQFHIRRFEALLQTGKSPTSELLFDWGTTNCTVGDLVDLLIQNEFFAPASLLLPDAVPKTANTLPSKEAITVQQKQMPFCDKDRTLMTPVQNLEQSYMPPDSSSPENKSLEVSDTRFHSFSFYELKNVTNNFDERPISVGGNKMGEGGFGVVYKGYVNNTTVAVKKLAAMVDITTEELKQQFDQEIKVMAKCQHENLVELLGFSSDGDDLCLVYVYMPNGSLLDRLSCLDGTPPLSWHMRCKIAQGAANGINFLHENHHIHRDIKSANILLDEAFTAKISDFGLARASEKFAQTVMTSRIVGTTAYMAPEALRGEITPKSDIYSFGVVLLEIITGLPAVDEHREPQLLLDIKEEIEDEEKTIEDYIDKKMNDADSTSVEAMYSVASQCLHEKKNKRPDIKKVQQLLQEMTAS

[11] = target: Mitogen-activated protein kinase kinase kinase kinase 4 (Homo sapiens, UniProt O95819); assay type: functional
[12] = target: cAMP-dependent protein kinase catalytic subunit alpha (Homo sapiens, UniProt P17612); assay type: functional
[13] = target: Serine/threonine-protein kinase pim-1 (Homo sapiens, UniProt P11309); assay type: functional
[14] = target: Homeodomain-interacting protein kinase 2 (Homo sapiens, UniProt Q9H2X6); assay type: functional;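 also: measured within a kinome-wide kinase profiling panel, HIPK2 being one panel member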
Chain of Homeodomain-interacting protein kinase 2 (Q9H2X6 whole entry): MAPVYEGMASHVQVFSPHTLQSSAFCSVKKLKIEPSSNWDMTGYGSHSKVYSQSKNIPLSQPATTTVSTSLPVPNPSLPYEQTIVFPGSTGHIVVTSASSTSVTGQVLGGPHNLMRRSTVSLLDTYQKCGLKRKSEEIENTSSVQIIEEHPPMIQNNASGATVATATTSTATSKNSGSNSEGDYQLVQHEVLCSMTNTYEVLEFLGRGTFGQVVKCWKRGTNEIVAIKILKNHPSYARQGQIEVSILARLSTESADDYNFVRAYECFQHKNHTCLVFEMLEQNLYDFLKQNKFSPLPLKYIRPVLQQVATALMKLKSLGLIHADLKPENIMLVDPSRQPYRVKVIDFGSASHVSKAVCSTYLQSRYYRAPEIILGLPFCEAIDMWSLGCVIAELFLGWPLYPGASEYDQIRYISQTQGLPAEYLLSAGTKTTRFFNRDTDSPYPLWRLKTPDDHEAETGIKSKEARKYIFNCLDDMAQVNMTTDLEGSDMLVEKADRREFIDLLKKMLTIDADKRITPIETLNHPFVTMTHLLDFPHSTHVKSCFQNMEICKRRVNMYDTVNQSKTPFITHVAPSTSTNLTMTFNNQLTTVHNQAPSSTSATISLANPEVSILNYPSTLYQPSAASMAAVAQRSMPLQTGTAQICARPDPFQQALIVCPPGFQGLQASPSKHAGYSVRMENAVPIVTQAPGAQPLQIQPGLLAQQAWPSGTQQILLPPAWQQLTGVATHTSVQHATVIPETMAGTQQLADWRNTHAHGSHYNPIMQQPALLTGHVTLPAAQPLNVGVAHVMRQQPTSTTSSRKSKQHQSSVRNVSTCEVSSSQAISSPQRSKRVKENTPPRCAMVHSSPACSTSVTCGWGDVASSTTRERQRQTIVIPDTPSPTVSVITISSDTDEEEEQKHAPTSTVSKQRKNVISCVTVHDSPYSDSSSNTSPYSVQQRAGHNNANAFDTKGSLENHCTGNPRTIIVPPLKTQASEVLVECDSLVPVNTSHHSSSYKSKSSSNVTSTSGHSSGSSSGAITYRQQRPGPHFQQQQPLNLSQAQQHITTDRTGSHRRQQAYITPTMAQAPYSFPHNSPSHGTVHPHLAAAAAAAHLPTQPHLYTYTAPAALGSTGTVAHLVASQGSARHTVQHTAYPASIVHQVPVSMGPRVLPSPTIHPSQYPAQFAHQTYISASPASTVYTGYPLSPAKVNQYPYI

[15] = target: T1, Glycogen synthase kinase-3 beta; experiment: Inhibition of Human GSK-3 beta Activity Measured in Biochemical System Using Microfluidics - 2063-05_Inhibitor_Dose_DryPowder_Activity_Set2. [Related pubchem assays (depositor defined):AID2709]
[16] = target: Glycogen synthase kinase-3 alpha (Homo sapiens, UniProt P49840); experiment: Inhibition of Human GSK-3 alpha Activity Measured in Biochemical System Using Microfluidics - 2063-06_Inhibitor_Dose_DryPowder_Activity_Set2. [Related pubchem assays (depositor defined):AID2709]
Chain of Glycogen synthase kinase-3 alpha (P49840 whole entry): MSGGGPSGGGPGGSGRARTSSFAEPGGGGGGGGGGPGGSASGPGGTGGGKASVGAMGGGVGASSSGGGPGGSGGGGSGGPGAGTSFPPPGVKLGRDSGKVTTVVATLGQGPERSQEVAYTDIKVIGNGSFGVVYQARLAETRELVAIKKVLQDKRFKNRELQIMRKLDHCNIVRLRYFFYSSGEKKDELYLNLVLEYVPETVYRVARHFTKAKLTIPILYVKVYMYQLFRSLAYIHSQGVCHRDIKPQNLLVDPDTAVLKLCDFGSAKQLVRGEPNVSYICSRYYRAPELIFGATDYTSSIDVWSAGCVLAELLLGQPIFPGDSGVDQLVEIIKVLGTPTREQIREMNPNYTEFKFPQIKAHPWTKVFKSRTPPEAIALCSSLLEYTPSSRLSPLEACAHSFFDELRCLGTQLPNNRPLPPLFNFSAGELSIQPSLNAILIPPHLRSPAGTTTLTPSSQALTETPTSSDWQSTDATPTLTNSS

[17] = target: Latent membrane protein 1 (Human herpesvirus 4 (strain B95-8), UniProt P03230); experiment: TES1-eGFP NF-kB reporter inhibition versus Tet-On dsRED, dose response, selectivity assay for LMP1 NF-kB inhibitor project, imaging, HEK293T, dual-color eGFP/dsRED, cherry-picks (AID 588398); assay type: functional, cell-based
[18] = system: HEK293; experiment: inhibitors of LMP1-driven NF-kB reporter, dose response, cell-based, HEK293, luciferase, cherry-pick (AID 588343); assay type: functional; details: Homo sapiens

Chain of Cyclin-dependent kinase 5 (Q00535 whole entry): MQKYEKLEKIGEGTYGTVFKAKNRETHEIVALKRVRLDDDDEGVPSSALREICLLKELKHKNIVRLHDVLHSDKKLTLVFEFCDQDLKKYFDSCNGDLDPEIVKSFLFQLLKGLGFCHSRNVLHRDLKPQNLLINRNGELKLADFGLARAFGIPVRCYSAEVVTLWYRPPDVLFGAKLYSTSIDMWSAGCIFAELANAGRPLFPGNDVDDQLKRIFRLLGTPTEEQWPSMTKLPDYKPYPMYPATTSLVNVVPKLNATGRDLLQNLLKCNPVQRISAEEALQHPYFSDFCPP

SMILES: Cc1[nH]c(=O)oc(=O)c1-c1ccccc1
Ki [1]: 63100 nM (active) | Ki [2]: 79400 nM (active) | Ki [3]: 63100 nM (active) | Ki [4]: 20000 nM (active)

SMILES: O=C1NS(=O)(=O)c2cccc(Cl)c21
Ki [5]: 31600 nM (active) | Ki [6]: 100000 nM (active) | Ki [7]: 50100 nM (active)

SMILES: c1ccc(C2c3[nH]c4ccccc4c3CCN2Cc2cccn2-c2ccccn2)nc1 (centres undefined)
AC50 [17]: 29800 nM (active) | AC50 [18]: 110000 nM (active)

Continued, values first:

Ki [8]: 398 nM (active) | Ki [9]: 12.6 nM (active) | Ki [10]: 79.4 nM (active) | Ki [11]: 316 nM (active) | Ki [12]: 398 nM (active) | Ki [4]: 3.16 nM (active) | Ki [13]: 2510 nM (active) | Ki [14]: 398 nM (active)
SMILES: CCCCNc1cc(-c2ccncc2)cc2[nH]nc(N)c12

AC50 [15]: 255 nM (active) | AC50 [16]: 597 nM (active)
SMILES: CN(C)Cc1c(C(=O)N/N=C/c2ccncc2)nnn1-c1nonc1N
